In patent US4411834A, “Preparation of II-deoxy anthracycline antibiotics” (Farmitalia Carlo Erba, S.p.A., priority 1978, dated 1983):
≈ marks a conversion by molar mass, not a printed value. Where two headings read alike, the source gives them in different places.

Experiments:
HeLa cells = assay: Effect on HeLa cells viability in vitro; format: cell-based; settings: Homo sapiens; for activity at 0.05 µg/mL: dose 50 ng/ml; for activity at 0.1 µg/mL: dose 100 ng/ml; for activity at 0.2 µg/mL: dose 200 ng/ml; for activity at 0.4 µg/mL: dose 400 ng/ml
Procedure: (§1) The new glycosides were tested against HeLa cells in vitro (time of exposure to the drugs: 24 hours), and on L 1210 and P 388 leukemia in mice in comparison with daunomycin.
^(a) HeLa cells were exposed to the drugs for 24 hours, then plated.
Number of colonies was evaluated 5 days later.
^(b) % over untreated controls.

[1] = Toxic deaths in leukemia-bearing mice; format: in vivo; settings: for Toxic deaths: intraperitoneally on day 1, macroscopic autopsy findings
Procedure: as §1

P 388 leukemia = assay: Effect against P 388 leukemia in mice; format: in vivo
Procedure: as §1
^(a) Mice were treated intraperitoneally on day 1 after tumor cell

[2] = tested on: Staphylococcus aureus 153; assay: MIC, standard tube dilution procedure; format: cell-based; settings: in vitro
Procedure: (§2) The "in vitro" minimum inhibitory concentrations (MIC) of glycosides A, B, C and D were determined for certain microorganisms using the standard tube dilution procedure and are reported in Table 6.

[3] = tested on: Staphylococcus aureus 209 P; assay: MIC, standard tube dilution procedure; format: cell-based; settings: in vitro
Procedure: as §2

Sarcina lutea ATCC 9341 = assay: MIC, standard tube dilution procedure; format: cell-based; settings: Micrococcus luteus, ATCC9341, in vitro
Procedure: as §2

Escherichia coli B = assay: MIC, standard tube dilution procedure; format: cell-based; settings: in vitro
Procedure: as §2

[4] = tested on: Bacillus subtilis ATCC 6633; assay: MIC, standard tube dilution procedure; format: cell-based; settings: ATCC6633, in vitro
Procedure: as §2

[5] = 24 h, read-out: No. of colonies, % over untreated controls
[6] = 24 h, HeLa cells, 24 hours exposure, colonies evaluated 5 days later (Table 7), read-out: ID50 (the source's name)
[7] = 24 h, HeLa cells, 24 hours exposure, read-out: ID50 (the source's name)
[8] = 24 hours exposure, read-out: No. of colonies, % over untreated controls

SMILES	IC50 (HeLa cells; [6]) [µg/mL]	IC50 (HeLa cells; [7]) [µg/mL]	activity at 0.05 µg/mL (HeLa cells; [8]) [%]	activity at 0.1 µg/mL (HeLa cells; [8]) [%]	activity at 0.2 µg/mL (HeLa cells; [8]) [%]	MIC [2] [µg/mL]	MIC [3] [µg/mL]	MIC (Sarcina lutea ATCC 9341) [µg/mL]	MIC (Escherichia coli B) [µg/mL]	MIC [4] [µg/mL]	activity at 0.4 µg/mL (HeLa cells; [8]) [%]	also measured
COc1cccc2c1C(=O)c1c(O)c3c(c(O)c1C2=O)C[C@@](O)(C(C)=O)C[C@@H]3O[C@H]1C[C@H](N)[C@H](O)[C@H](C)O1 [Daunomycin, reference compound]												IC50 (HeLa cells; 24 h, read-out: ID50): 0.006 to 0.007 µg/mL (≈ 0.0114 to 0.0133 µM); activity at 0.00312 µg/mL (HeLa cells; [5]): 71 to 80%; activity at 0.00625 µg/mL (HeLa cells; [5]): 48 to 66%; Toxic deaths ([1]; 6.6 mg/kg): 14/26
COc1cccc2c1C(=O)c1c(cc3c(c1O)[C@@H](O[C@H]1C[C@H](N)[C@H](O)[C@H](C)O1)C[C@](O)(C(=O)CO)C3)C2=O [Glycoside A, 11-deoxyadriamycin]	0.105 (≈ 0.199 µM)	0.1 (≈ 0.19 µM)	73	63	1	500 (≈ 948 µM)	125 (≈ 237 µM)	100 (≈ 190 µM)	50 (≈ 94.8 µM)	100 (≈ 190 µM)		activity at 0.025 µg/mL (HeLa cells; dose 25 ng/ml, 24 hours exposure, read-out: No. of colonies, % over untreated controls): 74%; Antitumor activity compared with daunomycin (in words) (P 388 leukemia; at the tolerated dose): greater than that of daunomycin; Activity against P 338 leukemia (in words) (P 388 leukemia; dose of 66 mg/kg): active; Toxicity (in words) ([1]; dose of 100 mg/kg, mice): toxic
COc1cccc2c1C(=O)c1c(cc3c(c1O)[C@@H](O[C@H]1C[C@H](N)[C@H](O)[C@H](C)O1)C[C@](O)(C(C)O)C3)C2=O (stereo partly drawn) [Glycoside B, 11-deoxy-13-dihydrodaunomycin]		0.44 (≈ 0.857 µM)				1000 (≈ 1950 µM)	1000 (≈ 1950 µM)	100 (≈ 195 µM)	100 (≈ 195 µM)	100 (≈ 195 µM)	66	activity at 0.8 µg/mL (HeLa cells; dose 800 ng/ml, 24 hours exposure, read-out: No. of colonies, % over untreated controls): 20%; activity at 1.6 µg/mL (HeLa cells; dose 1600 ng/ml, 24 hours exposure, read-out: No. of colonies, % over untreated controls): 0%; Toxic deaths ([1]; 500 mg/kg): 2/2
COc1cccc2c1C(=O)c1c(cc3c(c1O)[C@@H](O[C@H]1C[C@H](N)[C@H](O)[C@H](C)O1)C[C@](O)(C(C)=O)C3)C2=O [Glycoside C, 11-deoxydaunomycin]	0.054 (≈ 0.106 µM)	0.05 (≈ 0.0977 µM)	54	44	3	250 (≈ 489 µM)	62 (≈ 121 µM)	12.5 (≈ 24.4 µM)	25 (≈ 48.9 µM)	50 (≈ 97.7 µM)		Toxic deaths ([1]; 100 mg/kg): 3/8; Toxic deaths ([1]; 150 mg/kg): 3/19
CC[C@]1(O)Cc2cc3c(c(O)c2[C@@H](O[C@H]2C[C@H](N)[C@H](O)[C@H](C)O2)C1)C(=O)c1c(OC)cccc1C3=O [Glycoside D, 11-deoxy-13-deoxo-daunomycin]		0.22 (≈ 0.442 µM)		109	53	1000 (≈ 2010 µM)	250 (≈ 502 µM)	25 (≈ 50.2 µM)	50 (≈ 100 µM)	100 (≈ 201 µM)	0	Toxic deaths ([1]; 125 mg/kg): 5/5; Toxic deaths ([1]; 250 mg/kg): 5/5
